Data from patent US7087661B1, “Safe and effective biofilm inhibitory compounds and health-related uses thereof” (Cernofina, LLC, priority 1998, dated 2006).
Values joined by “and” are separate entries in the source; they are usually repeats but may differ in a detail not shown here. Equal entries are not always repeated. Structures can show the parent of a compound that is named as a salt.

Legend:
[1] = tested on: sea urchin egg fertilization (sperm-egg fusion); assay: Sea urchin fertilization assays; assay type: cell-based
Procedure: A simple sea urchin assay was used to detect and quantitate the ability of sulfate esters to block sperm-egg fusion. Sea urchin sperm was added to freshly collected eggs in the presence and absence of increasing amounts of the sulfate ester zosteric acid, and the eggs were subsequently scored for successful fertilization. Fertilization assays. Healthy sea urchins were induced to spawn by injection with 0.5 M KCL solution. Freshly collected eggs were gently washed and resuspended in filtered sea water (FSW, pH 8.2) and aliquotted into separate tubes for fertilization assays. Zosteric acid was added to each tube from a concentrated stock dissolved in FSW (pH 8.2), along with additional FSW to ensure a constant volume in each tube. Equal amounts of sperm were added to each tube and percent fertilization was determined by direct microscopic counting. Eggs with elevated fertilization membranes were scored as fertilized. Assays were performed at sperm-limiting concentrations that allowed 95–99% fertilization in the absence of zosteric acid.

[2] = tested on: polyclonal antibodies specific for zosteric acid; assay: Preliminary testing of anti-zosteric acid polyclonal antibodies for cross reactivity; assay type: binding
Source text: To investigate the mechanism behind the AF activity of sulfate esters, polyclonal antibodies specific for the sulfate ester zosteric acid were generated (BAbCo, Berkeley, Calif.). […] These antibodies were then used to investigate whether the sulfate ester AF agent zosteric acid directly binds fouling organisms.

Oceanosprillum = Oceanosprillum adhesion test on glass slides; assay type: cell-based; conditions: 5 mM in artificial seawater, 6-hour period
Procedure: Oceanosprillum adhesion test Each test consisted of a control set (with no sulfate esters) and sample sets containing the test molecules. The first test group consisted of a control sample set, a zosteric acid (5 mM) sample set, and an octyl sulfate (5 mM) sample set. The second test group consisted of a control sample set, a zosteric acid (5 mM) sample set, and a methyl sulfate (5 mM) sample set. Sample sets consisted of five 50 mL sterile centrifuge tubes, with each tube containing a glass microscope slide, 50 ml of artificial seawater (ASTM—American Society for testing and materials) with the dissolved sulfate ester, inoculated with an Oceanosprillum culture at 1×10^6 cells/mL. Sample sets were incubated at 23 C, with shaking so that the surface of the slides were horizontal. Over a 6-hour period, individual tubes were taken from the sample sets and tested for microbial adhesion.
(§1) Determination of bacterial adhesion. Samples were removed from the shaker and 1 mL of 50× acridine orange stain (0.5 g/L acridine powder in water) was added to the tube. The stain was allowed to react for 4 minutes. The slides were then removed and fitted with a long cover slip and immediately counted with an epifluorescent microscope fitted with a 100× (oil) objective lens on the under side of the slide. The size of the counting field was 10×10 μm. A total of 20 counts per slide were performed and averaged to yield the number of cells per μm^2, which was in turn converted to cells per mm^2. Error was assigned at 10% which is the standard accepted error for direct counting of bacterial cells.

Alteromonas atlantica = Alteromonas atlantica adhesion tests on glass slides; assay type: cell-based; conditions: for Alteromonas atlantica adhesion relative to controls: 5 mM dissolved in modified ASTM seawater
Procedure: Alteromonas atlantica adhesion tests. The tests consisted of a control sample set, a zosteric acid (5 mM) sample set, an octyl sulfate (5 mM) sample set, and a methyl sulfate (5 mM) set. A sample set consisted of six 60 mL sterile centrifuge tubes. Each tube contained a glass microscope slide and 50 mL of modified ASTM seawater (American Society for Testing and Materials (1986) D1141-86, ASTM, Philadelphia, Pa.) with dissolved agent, inoculated with Alteromonas atlantica culture to an initial cell density of 1×10^6 cells/mL. The modified seawater consisted of normal ASTM seawater ingredients, however the carbon source glycerol, was only 1000th the normal strength, […], and was void of an amino acid source (casamino acids), in order to allow enough carbon for attachment, but not for significant cell growth.
as §1

[3] = tested on: natural marine algal biofilms; assay: Marine algal biofilm development on RTV-11 silicone coating in running raw seawater; assay type: cell-based, marine algae; conditions: 25% (wt/wt) in RTV-11 silicone coated on glass slides; 26 days in running seawater
Source text: A 30% (w/v) solution of octyl sulfate in water (Stepan Chemical Co.) was evaporated to dryness under a stream of room temperature air, to recover pure octyl sulfate (FIG. 1). The dry octyl sulfate was incorporated into RTV-11 silicone polymer at a loading of 25% (wt/wt) (RTV-11 silicone, catalyst and primer obtained from General Electric). The mixture was applied to three glass slides previously primed with silicone primer, and allowed to cure to dryness. Three primed glass slides coated with pure RTV-11 served as agent-free controls. After complete drying, the absorption properties of each slide were measured using a Shimadzu UV-2101 spectrophotometer fitted with an integrating sphere. Slides were then placed in a tank of running raw seawater and allowed to incubate outdoors in natural sunlight for 26 days. Water temperature was nominally 15 C. Spectrophotometric determination of biofilm accumulation was measured on each slide periodically. Relative algal biomass was calculated as the ratio of absorption at 680 nm, contributed by chlorophyll a, to that at 750 nm, a wavelength not absorbed by chlorophyll, to correct for differences in turbidity and scattering properties of the different slides.

[4] = tested on: clot formation (prothrombin clotting time); assay: Prothrombin clotting time assays; assay type: biochemical; conditions: human serum
Procedure: Clotting assays. Clotting time assays were performed using commercial kits (Sigma Chemical Co.) for prothrombin clotting time. Serum was harvested from 30 mL of whole human blood obtained by venous puncture using centrifugation to remove blood cells. Zosteric acid and high MW heparin were added to separate aliquots of the serum, producing concentrations from 0 to 5.0 mg/mL. Clotting times were determined for each concentration in duplicate according to the protocols provided with the kit.

[5] = tested on: Shewanella putrefaciens cell surface; assay: Cell surface binding assay (immuno-gold staining, electron microscopy); conditions: cultures grown with 16 mM zosteric acid
Procedure: The marine bacterium Shewanella putrefaciens were grown in cultures containing zosteric acid and were subsequently examined for bound zosteric acid using immuno-gold staining with the antibody described above.
Cell Surface Binding Assays. The marine bacterium Shewanella putrefaciens was grown in marine broth in the presence of 16 mM zosteric acid. Dense log phase cells were harvest after 5 hours growth, and preserved in 0.5× Kamofsky's fixative (2% formaldehyde, 2.5% gluturaldehyde, 0.05 M sodium cacodylate, 0.25 M sucrose, pH 7.4) for 2 hours, and then transferred to a cacodylate buffer (0.05 M sodium cacodylate, pH 7.4) for storage. Cells were prepared for electron microscopic examination using immuno-gold staining techniques (Harlow, E. and Laine, D., Antibodies, A Laboratory Manual, Cold Spring Harbor Laboratory, 359–421; Roth et al., J. Histochem. Cytochem. 26: 1074–1081 (1978)). The primary antibody used in this study was an anti-zosteric acid polyclonal antibody (BAbCo, Richmond, Calif.).

Shewanella putrefaciens = assay: Bacterial agglutination assays (growth and agglutination in liquid culture); assay type: cell-based
Procedure: To further investigate the role of sulfate esters in agglutination, the ability of sulfate esters to facilitate the agglutination of bacterial cells was investigated. Log-phase cultures grown in the presence of zosteric acid were monitored spectrophotometrically (OD600) for growth, and for agglutination in the presence of increasing amounts of zosteric acid. Bacterial agglutination assays. Log-phase cultures of Shewanella putrefaciens were grown in complete seawater medium containing zosteric acid at a range of concentrations up to 20 mM. Cultures were counted for viable colony forming units at eight hours.

Aureobasidium pullulans = assay: Fungal attachment and growth assay on glass slides; assay type: cell-based, Aureobasidium pullulans (ATCC 34261)
Procedure: Aureobasidium pullulans (ATCC 34261) was grown on potato-dextrose agar and harvested according to ASTM G-21-90 protocols (American Society for Testing and Materials (1986) […]-86, ASTM, Philadelphia, Pa.). The resulting spore suspension was used to inoculate liquid culture tubes containing 35 mL of growth medium (nutrient salts with 5 mM sucrose) and 15 mM zosteric acid. Zosteric acid-free medium was prepared as a control. A sterile microscope slide was added to each tube, the tubes were sealed and placed on a rotary shaker table at room temperature. One tube was harvested each day by removing the slide and counting the number of attached spores by direct microscopic counts, as described above.

equine erythrocytes = assay: Red blood cell agglutination assays; assay type: cell-based; conditions: for concentrations producing erythrocyte agglutination: washed equine erythrocytes, 0.005 to 5.0 mg/mL tested
Procedure: Red Blood Cell agglutination assays. Washed equine erythrocytes suspended in 1 mg/mL sodium citrate were placed in microtiter plates designed with wells containing hemispherical bottoms. Negative controls (no zosteric acid) were diluted in isotonic saline solution. Zosteric acid treated cells were diluted with saline containing zosteric acid at eight concentrations ranging from 0.005 to 5.0 mg/mL. Positive controls were exposed to the same range of high molecular weight heparin sulfate concentrations.

[6] = tested on: agglutination of sea urchin eggs by purified bindin; assay: Sea urchin egg agglutination assays with purified bindin; assay type: cell-based
Procedure: Sea urchin egg agglutination assays. Freshly spawned eggs were suspended in acidic seawater (pH 5) for 5 minutes to remove the outer jelly coat, and then washed 5 times in normal FSW (pH 8.2). Eggs were then transferred into plastic petri dished containing a range of zosteric acid concentrations and incubated for 15 minutes. Purified bindin (D. Epel, Stanford University) was added to the eggs at concentrations ranging from 1.2 to 12 μg/mL. The mixtures were gently agitated on a rotary shaker for 5 minutes and visually examined for agglutination. Bovine serum albumen (BSA) was used in separate assays to control for nonspecific agglutination of the dejellied eggs.

CCC(C)(C)c1ccc(OS(=O)(=O)Cl)cc1 [4-PPCS, 4 t-Pentyl Phenyl Chlorosulfate] was tested, and the “impact on sperm motility” value ([1]; contact with 4-PPCS) was “no adverse impacts”, the “inhibition when more sperm were added to the medium” value ([1]; exceeding the binding capacity of 4-PPCS in solution) was “could be washed out” and the “effectiveness in blocking sea urchin fertilization” value ([1]; in the range of 1–10 mM) was roughly 100%.
O=C(O)C=Cc1ccccc1 [cinnamic acid] was tested, and the “cross reactivity with antibodies specific for zosteric acid” value [2] was “no cross reactivity”.
In the case of O=C(O)/C=C/c1ccc(O)cc1 [coumaric acid, reference compound], the “effect on egg fertilization” value ([1]; 1 mg/mL) is reported as “no effect”.
COc1cc(/C=C/C(=O)O)ccc1O [ferulic acid] was tested, and the “cross reactivity with antibodies specific for zosteric acid” value [2] was “no cross reactivity”.
In the case of COS(=O)(=O)O [methyl sulfate], the “Oceanosprillum adhesion (bacterial attachment) relative to control” value (Oceanosprillum) is reported as “roughly a two fold reduction” and the Alteromonas atlantica adhesion (Alteromonas atlantica; 5 mM, constant after 120 minutes, controls greater than 700,000) is reported as 150,000 cells/mm^2.
For CCCCCCCCOS(=O)(=O)[O-].[Na+] [octyl sulfate], the “Oceanosprillum adhesion (bacterial attachment) relative to control” value (Oceanosprillum) was “to an even greater extent than zosteric acid”, the “algal biofilm development relative to controls lacking octyl sulfate” value [3] was “five fold less” and the “Alteromonas atlantica adhesion relative to controls” value (Alteromonas atlantica) was “slightly higher inhibitory activity than zosteric acid”.
In the case of O=C(O)/C=C/c1ccc(OS(=O)(=O)O)cc1 [zosteric acid], the “concentration range effective in blocking sea urchin fertilization” value [1] is reported as 1 to 10 mM, the fertilization remaining ([1]; 1 mg/mL) is reported as 21% and the “effectiveness at inhibiting fertilization relative to heparin” value ([1]; equal mass concentrations, 1 mg/mL) is reported as “at least twice as effective”. For the same compound, the “concentrations that completely blocked fertilization” value ([1]; sea urchin eggs, sperm-limiting concentrations) was “higher than 0.5 mg/mL and > 1.5 mM”, the “effect on sperm viability or motility” value ([1]; sea urchin sperm exposed to zosteric acid) was “no detected effect” and the “reversibility of fertilization inhibition” value ([1]; unfertilized eggs of highest treatment washed and re-exposed to fresh sperm) was “reversible”. For the same compound, the “Oceanosprillum adhesion (bacterial attachment) relative to control” value (Oceanosprillum) was “roughly a two fold reduction”, the “concentrations effective at preventing clot formation” value [4] was “exceeding 10 mg/ml” and the “Alteromonas atlantica adhesion relative to controls” value (Alteromonas atlantica) was “significant reduction”. For the same compound, the “zosteric acid bound to bacterial cell surface (immuno-gold staining)” value [5] was “bound to the surface of the bacteria”, the “counts of viable colony forming units” value (Shewanella putrefaciens; at eight hours, among the different cultures) was “no difference in cell density” and the “agglutination of S. putrefaciens” value (Shewanella putrefaciens; concentration dependent, up to 20 mM) was “significant agglutination”. The “growth of S. putrefaciens in liquid culture” value (Shewanella putrefaciens; concentrations up to 16 mM) was “did not inhibit the growth”, the “filamentous growth or mycelial development of colonies” value (Aureobasidium pullulans; 15 mM in liquid culture) was “no evidence of filamentous growth or mycelial development” and the “germinated fungal colonies on slides” value (Aureobasidium pullulans; 15 mM, after 5 days incubation, control more than 600) was “less than 20 germinated fungal colonies/mm^2”. The “growth of fungal spores in the medium” value (Aureobasidium pullulans; 15 mM, clouding of tubes after Day 1) was “observed to grow”, the “reactivity with cell surface glycoproteins and polysaccharides relative to high molecular weight heparin” value (equine erythrocytes; from erythrocyte agglutination concentrations) was “eight times more reactive” and the “concentrations producing erythrocyte agglutination” value (equine erythrocytes) was no less than 0.175 mg/mL. The Agglutination ([6]; [ZA] 0.015 mg mL^−1) was “Yes”, the Agglutination ([6]; [ZA] 0.03 mg mL^−1) was “Yes” and the Agglutination ([6]; [ZA] 0.075 mg mL^−1) was “Yes”. For the same compound, the Agglutination ([6]; [ZA] 0.15 mg mL^−1) was “Yes”, the Agglutination ([6]; [ZA] 0.30 mg mL^−1) was “Yes” and the Agglutination ([6]; [ZA] 0.75 mg mL^−1) was “Yes”. For the same compound, the Agglutination ([6]; [ZA] 1.5 mg mL^−1) was “No” and the Agglutination ([6]; [ZA] 3 mg mL^−1) was “No”.
With heparin [reference compound] the reduction of fertilization ([1]; 1 mg/mL) was “approximately 50%”, the “concentrations effective at preventing clot formation” value [4] was “below 0.1 mg/ml” and the “concentrations producing erythrocyte agglutination” value (equine erythrocytes) was “greater than 0.75 mg/mL”.
